Drawing on the supplement of paper PMC10307832, this text covers relative viability for one cell line.

Test in all cases: relative viability (nuclei count vs DMSO), 5 days (fraction); higher = more cells survive
Compound in the experiment “Carboplatin + Vorinostat”: C1CC(C1)(C(=O)O)C(=O)O.[NH2-].[NH2-].[Pt+2] [Carboplatin] + O=C(CCCCCCC(=O)Nc1ccccc1)NO [Vorinostat] (partner 1 µM)
The method in brief:
(§1)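 Lung cancer cell lines were seeded in 1536-well plates and dosed by pin tool the next day, with either a single drug or a fixed anchor-drug dose combined with five library-drug doses (not always all listed) spaced in √10 steps. Five days later, one step fixed the cells and stained their nuclei (final 0.05% Triton X-100, 1% formaldehyde, 1 ug/ml Hoechst), and nuclei were counted on 4× images. Relative viability is the nuclei count in treated wells divided by the count in vehicle wells, and each value is the median of duplicate plates.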

Compound in the experiment “GSK126 + Bortezomib”: CC[C@H](C)N1C=C(C2=C(C=C(C=C21)C3=CN=C(C=C3)N4CCNCC4)C(=O)NCC5=C(C=C(NC5=O)C)C)C [GSK126] + CC(C)C[C@H](NC(=O)[C@H](Cc1ccccc1)NC(=O)c1cnccn1)B(O)O [Bortezomib] (partner 0.002 µM)
An outline of the steps:
as §1

Compound in the experiment “GSK126 + Dasatinib”: CC[C@H](C)N1C=C(C2=C(C=C(C=C21)C3=CN=C(C=C3)N4CCNCC4)C(=O)NCC5=C(C=C(NC5=O)C)C)C [GSK126] + Cc1nc(Nc2ncc(C(=O)Nc3c(C)cccc3Cl)s2)cc(N2CCN(CCO)CC2)n1 [Dasatinib] (partner 0.075 µM)
The method in brief: as §1

Compound in the experiment “MLN4924 + Phenformin”: NS(=O)(=O)OC[C@@H]1C[C@@H](n2ccc3c(N[C@H]4CCc5ccccc54)ncnc32)C[C@@H]1O [MLN4924] + N=C(N)NC(=N)NCCc1ccccc1 [Phenformin] (partner 250 µM)
An outline of the steps: as §1

On to UMC-11, for which the relative viability was found to be 0.425 with Carboplatin + Vorinostat (first compound 0.08 µM); 0.364 in the experiment with Carboplatin + Vorinostat (first compound 0.253 µM); 0.36 with Carboplatin + Vorinostat (first compound 0.8 µM); 0.37 in the experiment with Carboplatin + Vorinostat (first compound 2.53 µM); 0.283 with Carboplatin + Vorinostat (first compound 8 µM); 0.842 with GSK126 + Bortezomib (first compound 0.08 µM). The relative viability amounted to 0.628 in the experiment with GSK126 + Bortezomib (first compound 0.253 µM); 0.747 with GSK126 + Bortezomib (first compound 0.8 µM); 0.643 with GSK126 + Bortezomib (first compound 2.53 µM); 0.895 with GSK126 + Bortezomib (first compound 8 µM); 0.512 with GSK126 + Dasatinib (first compound 0.08 µM); 0.475 with GSK126 + Dasatinib (first compound 0.253 µM). For the same cell line, the relative viability came out at 0.443 with GSK126 + Dasatinib (first compound 0.8 µM); 0.417 with GSK126 + Dasatinib (first compound 2.53 µM); 0.437 with GSK126 + Dasatinib (first compound 8 µM); 0.322 in the experiment with MLN4924 + Phenformin (first compound 0.04 µM); 0.287 with MLN4924 + Phenformin (first compound 0.1265 µM); 0.266 with MLN4924 + Phenformin (first compound 0.4 µM). The relative viability with MLN4924 + Phenformin (first compound 1.265 µM) amounted to 0.185; with MLN4924 + Phenformin (first compound 4 µM) it was 0.189.
